Among the data in patent publication US9957267B2, “Somatostatin modulators and uses thereof” (Crinetics Pharmaceuticals, Inc., priority 2015, dated 2018) are EC50 values, retold here.

Read-outs that look alike come from different tables or passages of the source.

Common to all, as to format: cell-based
In assay [1] the target is T1, SSTR4 (Homo sapiens, UniProt P31391).
T1 construct: expressed in transfected cells
Put plainly: cAMP functional agonist assay, CHO cells expressing SSTR4. As for the experimental part: (§1) Chinese hamster ovary (CHO) cells stably expressing one of the six human or rodent somatostatin receptor subtypes are grown to 85-100% confluence on standard tissue culture dishes in F12-Ham's growth media (Hyclone) with following additives: 10% donor calf serum (Hyclone), 200 U/mL penicillin (Hyclone), 200 μg/mL streptomycin (Hyclone), 20 mM HEPES (Hyclone), 200 μg/mL hygromycin Hyclone.
(§2) General overview: All SSTR subtypes are Gi coupled G-protein coupled receptors (GPCRs) that lead to decreases in intracellular cyclic AMP (cAMP) when activated by an agonist. […] One example of an intracellular cAMP assay is described below.

Assay [2] concerns the target T2, SSTR1 (Homo sapiens, UniProt P30872).
T2 construct: expressed in transfected cells
Briefly: cAMP functional agonist assay, CHO cells expressing SSTR1. As for the experimental part: as §1, §2

For assay [3], the target named is SSTR3 (UniProt P32745). Put plainly: cAMP functional agonist assay, CHO cells expressing SSTR3. Particulars: CHO cells stably expressing SSTR3, cAMP. As for the experimental part:
as §1
(§3) General overview: All SSTR subtypes are Gi coupled G-protein coupled receptors (GPCRs) that lead to decreases in intracellular cyclic AMP (cAMP) when activated by an agonist. Therefore, measurement of intracellular cAMP levels can be used to assess whether compounds of the invention are agonists of SSTR subtypes (John Kelly, Troy Stevens, W. Joseph Thompson, and Roland Seifert, Current Protocols in Pharmacology, 2005, 2.2.1-2.2). One example of an intracellular cAMP assay is described below.

Assay [4] has as its target T3, SSTR5 (Homo sapiens, UniProt P35346).
T3 construct: expressed in transfected cells
Put plainly: cAMP functional agonist assay, CHO cells expressing SSTR5. To be noted: CHO cells stably expressing SSTR5, cAMP. As for the experimental part:
as §1, §3

Setting [5] is: CHO cells stably expressing SSTR1, cAMP, read-out: SSTR1 EC50.

Sequence of SSTR3 (P32745 whole entry): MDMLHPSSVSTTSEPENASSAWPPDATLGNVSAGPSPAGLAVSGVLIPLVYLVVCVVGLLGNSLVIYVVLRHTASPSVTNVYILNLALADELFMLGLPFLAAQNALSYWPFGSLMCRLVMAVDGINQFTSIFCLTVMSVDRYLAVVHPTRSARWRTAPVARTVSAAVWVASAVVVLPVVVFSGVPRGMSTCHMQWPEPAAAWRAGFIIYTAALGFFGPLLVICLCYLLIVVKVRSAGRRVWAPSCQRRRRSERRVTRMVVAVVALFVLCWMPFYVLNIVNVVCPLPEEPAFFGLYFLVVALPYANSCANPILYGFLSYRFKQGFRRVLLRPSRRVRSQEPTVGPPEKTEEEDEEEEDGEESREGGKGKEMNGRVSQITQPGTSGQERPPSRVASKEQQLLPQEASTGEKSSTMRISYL
T2 sequence (P30872 whole entry): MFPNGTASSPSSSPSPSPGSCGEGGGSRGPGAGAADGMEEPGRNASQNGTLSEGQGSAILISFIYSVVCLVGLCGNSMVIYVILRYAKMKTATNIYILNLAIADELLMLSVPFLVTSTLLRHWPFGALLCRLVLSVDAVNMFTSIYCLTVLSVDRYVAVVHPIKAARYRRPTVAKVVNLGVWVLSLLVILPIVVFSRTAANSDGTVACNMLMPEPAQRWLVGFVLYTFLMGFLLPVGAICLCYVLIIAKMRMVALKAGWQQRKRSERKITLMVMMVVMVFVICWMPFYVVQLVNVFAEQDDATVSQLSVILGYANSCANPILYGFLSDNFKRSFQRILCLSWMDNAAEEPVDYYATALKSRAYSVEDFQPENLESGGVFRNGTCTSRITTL
T1 sequence (P31391 whole entry): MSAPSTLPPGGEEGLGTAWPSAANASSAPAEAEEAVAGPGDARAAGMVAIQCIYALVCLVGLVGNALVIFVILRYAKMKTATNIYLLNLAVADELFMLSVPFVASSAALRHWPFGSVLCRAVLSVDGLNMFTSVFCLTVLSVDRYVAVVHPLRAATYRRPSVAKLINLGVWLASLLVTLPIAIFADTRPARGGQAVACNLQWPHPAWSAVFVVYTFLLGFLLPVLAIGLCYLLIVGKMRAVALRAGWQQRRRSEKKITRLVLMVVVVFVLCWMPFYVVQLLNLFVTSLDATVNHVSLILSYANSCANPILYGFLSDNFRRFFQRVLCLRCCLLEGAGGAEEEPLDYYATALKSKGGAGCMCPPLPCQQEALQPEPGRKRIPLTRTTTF
T3 sequence (P35346 whole entry): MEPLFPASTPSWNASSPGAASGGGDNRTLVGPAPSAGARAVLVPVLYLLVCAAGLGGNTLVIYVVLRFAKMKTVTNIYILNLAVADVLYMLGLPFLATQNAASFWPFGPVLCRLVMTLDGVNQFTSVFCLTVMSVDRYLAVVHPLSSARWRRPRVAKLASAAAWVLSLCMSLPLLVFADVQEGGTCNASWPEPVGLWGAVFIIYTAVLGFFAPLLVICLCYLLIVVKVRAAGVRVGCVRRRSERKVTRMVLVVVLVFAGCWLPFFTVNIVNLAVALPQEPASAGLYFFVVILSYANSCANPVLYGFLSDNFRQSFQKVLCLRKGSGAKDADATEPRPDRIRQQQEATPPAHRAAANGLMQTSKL

Usually EC50 stands for the concentration giving half of the maximal effect. With `Cc1cc(Cl)cc(-c2cnc3ncn(-c4cccc(O)c4)c(=O)c3c2CN(C)C[C@@H]2CCCN2)c1` [Compound A-30, 6-(3-chloro-5-methylphenyl)-3-(3-hydroxyphenyl)-5-({methyl[(2S)-pyrrolidin-2-ylmethyl]amino}methyl)-3H,4H-pyrido[2,3-d]pyrimidin-4-one], the 50% effective concentration (EC50) is under 100 nM in assay [1], 100 to 10000 nM in assay [2], under 100 nM in assay [3] and 100 to 10000 nM in assay [4].
With `Cc1cc(C)cc(-c2cnc3ncn(-c4cccc(O)c4)c(=O)c3c2CN(C)C[C@@H]2CCCCN2)c1` [Compound A-15, 6-(3,5-dimethylphenyl)-3-(3-hydroxyphenyl)-5-({methyl[(2S)-piperidin-2-ylmethyl]amino}methyl)-3H,4H-pyrido[2,3-d]pyrimidin-4-one], the concentration giving a half-maximal response (EC50) was under 100 nM in assay [1], 100 to 10000 nM in assay [2], under 100 nM in assay [3] and 100 to 10000 nM in assay [4].
With `CCN(CCN)Cc1c(-c2cc(C)cc(C)c2)cnc2ncn(-c3cccc(O)c3)c(=O)c12` [Compound A-2, 5-{[(2-aminoethyl)(ethyl)amino]methyl}-6-(3,5-dimethylphenyl)-3-(3-hydroxyphenyl)-3H,4H-pyrido[2,3-d]pyrimidin-4-one], the EC50 was under 100 nM in assay [1], over 10000 nM in assay [2], 100 to 10000 nM in assay [3] and 100 to 10000 nM in assay [4].
With `Cc1cc(C)cc(-c2cnc3ncn(-c4cccc(O)c4)c(=O)c3c2CN(C)CCN)c1` [Compound A-1, 5-{[(2-aminoethyl)(methyl)amino]methyl}-6-(3,5-dimethylphenyl)-3-(3-hydroxyphenyl)-3H,4H-pyrido[2,3-d]pyrimidin-4-one], the half-maximal effective concentration (EC50) in assay [1] (CHO cells stably expressing SSTR4, cAMP, read-out: SSTR4 EC50) was under 100 nM; in assay [2], over 10000 nM; in assay [3], 100 to 10000 nM; in assay [4], over 10000 nM.
On to `Cc1cc(C)cc(-c2cnc3ncn(-c4cccc(O)c4)c(=O)c3c2CN2CCCC2CN)c1` (stereo not drawn) [Compound A-11, 5-{[2-(aminomethyl)pyrrolidin-1-yl]methyl}-6-(3,5-dimethylphenyl)-3-(3-hydroxyphenyl)-3H,4H-pyrido[2,3-d]pyrimidin-4-one], for which the figures for the 50% effective concentration (EC50) in assay [1] and in assay [2] were under 100 nM and 100 to 10000 nM, respectively.
Consider `Cc1cc(C)cc(-c2cnc3ncn(-c4cccc(O)c4)c(=O)c3c2CN(C)CC2(N)CCCC2)c1` [Compound A-12, 5-({[(1-aminocyclopentyl)methyl](methyl)amino}methyl)-6-(3,5-dimethylphenyl)-3-(3-hydroxyphenyl)-3H,4H-pyrido[2,3-d]pyrimidin-4-one], for which the figures for the 50% effective concentration (EC50) in assay [1], in assay [3] and in assay [4] were under 100 nM, 100 to 10000 nM and 100 to 10000 nM, respectively.
For the compound `Cc1cc(Cl)cc(-c2cnc3ncn(-c4cc(O)cc(F)c4)c(=O)c3c2CN(C)C[C@@H]2CCCN2)c1` [Compound A-47, 6-(3-chloro-5-methylphenyl)-3-(3-fluoro-5-hydroxyphenyl)-5-({methyl[(2S)-pyrrolidin-2-ylmethyl]amino}methyl)-3H,4H-pyrido[2,3-d]pyrimidin-4-one], the EC50 is 100 to 10000 nM in assay [2] (setting [5]), under 100 nM in assay [3] and 100 to 10000 nM in assay [4].
Turning to `COc1cccc(-n2cnc3ncc(-c4cc(C)cc(C)c4)c(CN(C)C[C@@H]4CCCN4)c3c2=O)c1` [Compound A-33, 6-(3,5-dimethylphenyl)-3-(3-methoxyphenyl)-5-({methyl[(2S)-pyrrolidin-2-ylmethyl]amino}methyl)-3H,4H-pyrido[2,3-d]pyrimidin-4-one], the EC50 was under 100 nM in assay [1] and 100 to 10000 nM in assay [3].
Take `Cc1cc(C)cc(-c2cnc3ncn(-c4cccc(O)c4)c(=O)c3c2CN(C)C[C@@H]2CCN2)c1` [Compound A-18, 5-({[(2S)-azetidin-2-ylmethyl](methyl)amino}methyl)-6-(3,5-dimethylphenyl)-3-(3-hydroxyphenyl)-3H,4H-pyrido[2,3-d]pyrimidin-4-one]: the results for the concentration giving a half-maximal response (EC50) in assay [1], in assay [2] and in assay [3] were under 100 nM, 100 to 10000 nM and 100 to 10000 nM, respectively.
Consider `Cc1cc(Cl)cc(-c2cnc3ncn(-c4cc(O)cc(F)c4)c(=O)c3c2CN(C)C[C@H]2CCCN2)c1` [Compound A-53, 6-(3-chloro-5-methylphenyl)-3-(3-fluoro-5-hydroxyphenyl)-5-({methyl[(2R)-pyrrolidin-2-ylmethyl]amino}methyl)-3H,4H-pyrido[2,3-d]pyrimidin-4-one], for which the EC50 was 100 to 10000 nM in assay [2] (setting [5]), under 100 nM in assay [3] and over 10000 nM in assay [4].
Take `Cc1cc(C)cc(-c2cnc3ncn(-c4cccc(O)c4)c(=O)c3c2CN(C)C[C@H]2CCCN2)c1` [Compound A-16, 6-(3,5-dimethylphenyl)-3-(3-hydroxyphenyl)-5-({methyl[(2R)-pyrrolidin-2-ylmethyl]amino}methyl)-3H,4H-pyrido[2,3-d]pyrimidin-4-one]: the EC50 was under 100 nM in assay [1], over 10000 nM in assay [2], under 100 nM in assay [3] and over 10000 nM in assay [4].
As to `Cc1cc(C)cc(-c2cnc3ncn(-c4cccc(O)c4)c(=O)c3c2CN2CCC(N)C2)c1` (stereo not drawn) [Compound A-10, 5-[(3-aminopyrrolidin-1-yl)methyl]-6-(3,5-dimethylphenyl)-3-(3-hydroxyphenyl)-3H,4H-pyrido[2,3-d]pyrimidin-4-one], the figures for the 50% effective concentration (EC50) in assay [1] and in assay [3] were 100 to 10000 nM and over 10000 nM, respectively.
`Cc1cc(C)cc(-c2cnc3ncn(-c4cccc(O)c4)c(=O)c3c2CN(C)C[C@@H]2CCCN2)c1` [Compound A-17, 6-(3,5-dimethylphenyl)-3-(3-hydroxyphenyl)-5-({methyl[(2S)-pyrrolidin-2-ylmethyl]amino}methyl)-3H,4H-pyrido[2,3-d]pyrimidin-4-one]: the 50% effective concentration (EC50) is under 100 nM in assay [1], 100 to 10000 nM in assay [2] and under 100 nM in assay [3].
As for `Cc1cc(C)cc(-c2cnc3ncn(-c4cccc(O)c4)c(=O)c3c2CN(C)C[C@H]2CCCCN2)c1` [Compound A-14, 6-(3,5-dimethylphenyl)-3-(3-hydroxyphenyl)-5-({methyl[(2R)-piperidin-2-ylmethyl]amino}methyl)-3H,4H-pyrido[2,3-d]pyrimidin-4-one], the half-maximal effective concentration (EC50) in assay [1] is under 100 nM; in assay [2], over 10000 nM; in assay [3], under 100 nM; in assay [4], over 10000 nM.
For the compound `Cc1cc(C)cc(-c2cnc3ncn(-c4cccc(CO)c4)c(=O)c3c2CN(C)C[C@@H]2CCCN2)c1` [Compound A-40, 6-(3,5-dimethylphenyl)-3-[3-(hydroxymethyl)phenyl]-5-({methyl[(2S)-pyrrolidin-2-ylmethyl]amino}methyl)-3H,4H-pyrido[2,3-d]pyrimidin-4-one], the EC50 in assay [1] is under 100 nM; in assay [3], 100 to 10000 nM.
With `Cc1cc(C)cc(-c2cnc3ncn(-c4cccc(C#N)c4)c(=O)c3c2CN(C)C[C@@H]2CCCN2)c1` [Compound A-42, 3-[6-(3,5-dimethylphenyl)-5-({methyl[(2S)-pyrrolidin-2-ylmethyl]amino}methyl)-4-oxo-3H,4H-pyrido[2,3-d]pyrimidin-3-yl]benzonitrile], the 50% effective concentration (EC50) is under 100 nM in assay [1], 100 to 10000 nM in assay [2], 100 to 10000 nM in assay [3] and over 10000 nM in assay [4].
For the compound `Cc1cc(C)cc(-c2cnc3ncn(-c4cccc(O)c4)c(=O)c3c2CN(C)C(C)CN)c1` (stereo not drawn) [Compound A-7, 5-{[(1-aminopropan-2-yl)(methyl)amino]methyl}-6-(3,5-dimethylphenyl)-3-(3-hydroxyphenyl)-3H,4H-pyrido[2,3-d]pyrimidin-4-one], the values for the EC50 in assay [1] and in assay [3] were under 100 nM and 100 to 10000 nM, respectively.
The like results for `Cc1cc(C)cc(-c2cnc3ncn(-c4ccc(O)cc4)c(=O)c3c2CN(C)C[C@@H]2CCCN2)c1` [Compound A-41, 6-(3,5-dimethylphenyl)-3-(4-hydroxyphenyl)-5-({methyl[(2S)-pyrrolidin-2-ylmethyl]amino}methyl)-3H,4H-pyrido[2,3-d]pyrimidin-4-one] were, in that order, under 100 nM and 100 to 10000 nM.
Regarding `CNC(=O)c1cccc(-n2cnc3ncc(-c4cc(C)cc(C)c4)c(CN(C)C[C@@H]4CCCN4)c3c2=O)c1` [Compound A-43, 3-[6-(3,5-dimethylphenyl)-5-({methyl[(2S)-pyrrolidin-2-ylmethyl]amino}methyl)-4-oxo-3H,4H-pyrido[2,3-d]pyrimidin-3-yl]-N-methylbenzamide], the values for the half-maximal effective concentration (EC50) in assay [1] and in assay [3] were under 100 nM and 100 to 10000 nM, respectively.
On to `Cc1cc(C)cc(-c2cnc3ncn(-c4cccc(O)c4)c(=O)c3c2CN(C)CC2COCCN2)c1` (stereo not drawn) [Compound A-19, 6-(3,5-dimethylphenyl)-3-(3-hydroxyphenyl)-5-{[methyl(morpholin-3-ylmethyl)amino]methyl}-3H,4H-pyrido[2,3-d]pyrimidin-4-one], for which the concentration giving a half-maximal response (EC50) in assay [1] was under 100 nM; in assay [3], under 100 nM; in assay [4] it was over 10000 nM.
With `Cc1cc(C)cc(-c2cnc3ncn(-c4cccc(O)c4)c(=O)c3c2CN(C)C[C@H](C)N)c1` [Compound A-8, 5-({[(2S)-2-aminopropyl](methyl)amino}methyl)-6-(3,5-dimethylphenyl)-3-(3-hydroxyphenyl)-3H,4H-pyrido[2,3-d]pyrimidin-4-one], the 50% effective concentration (EC50) was under 100 nM in assay [1], 100 to 10000 nM in assay [3] and over 10000 nM in assay [4].
